Assay results published in patent publication US11471494B2, “Microorganisms programmed to produce immune modulators and anti-cancer therapeutics in tumor cells” (Synlogic Operating Company, Inc., priority 2017, dated 2022).

Columns and labels:
kynurenine = assay: Tumoral kynurenine levels, CT26 murine tumor model (Example 13); format: in vivo, mouse; settings: Study 2; INCB024360 oral gavage twice daily
CTLA-4 [1] = target: T1, CTLA-4 (Rattus norvegicus, UniProt Q62859); settings: CTLA-4 from rats; cited from earlier work
T1 sequence (Q62859 1-223): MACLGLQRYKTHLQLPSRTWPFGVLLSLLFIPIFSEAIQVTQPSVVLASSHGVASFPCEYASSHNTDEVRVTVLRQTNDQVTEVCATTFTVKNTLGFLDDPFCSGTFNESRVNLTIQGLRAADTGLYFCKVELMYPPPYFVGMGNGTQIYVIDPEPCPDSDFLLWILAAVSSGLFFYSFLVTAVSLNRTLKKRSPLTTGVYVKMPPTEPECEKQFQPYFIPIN

CTLA-4 [2] = target: CTLA-4 (Mus musculus, UniProt P09793); settings: CTLA-4 from mice; cited from earlier work
CTLA-4 [3] = target: T2, CTLA-4 (Oryctolagus cuniculus, UniProt P42072); settings: CTLA-4 from rabbits; cited from earlier work
T2 sequence (P42072 36-223): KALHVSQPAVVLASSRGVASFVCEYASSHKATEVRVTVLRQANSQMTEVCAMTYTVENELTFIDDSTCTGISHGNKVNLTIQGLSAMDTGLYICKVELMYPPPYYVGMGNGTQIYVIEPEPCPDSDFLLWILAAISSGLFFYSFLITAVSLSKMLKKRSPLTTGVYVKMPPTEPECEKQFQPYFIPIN

[4] = test system: NK cells, γδT cells and CD8+ T cells; settings: upon treatment; cited from earlier work

Chain of CTLA-4 (Mus musculus, UniProt P09793) (P09793 36-223): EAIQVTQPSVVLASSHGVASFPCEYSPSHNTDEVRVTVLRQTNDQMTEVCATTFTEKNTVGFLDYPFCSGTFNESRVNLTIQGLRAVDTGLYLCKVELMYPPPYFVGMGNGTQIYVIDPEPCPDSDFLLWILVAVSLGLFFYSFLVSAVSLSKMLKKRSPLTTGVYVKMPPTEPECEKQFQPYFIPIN

NS(=O)(=O)NCCNc1nonc1C(=NO)Nc1ccc(F)c(Br)c1 [INCB024360]
Intratumoral kynurenine levels, SYN2028 compared with INCB024360 (kynurenine): similar

Ipilimumab
cross-reactivity with or binding to CTLA-4 (CTLA-4 [1]): did not show cross-reactivity with or binding to
cross-reactivity with or binding to CTLA-4 (CTLA-4 [2]): did not show cross-reactivity with or binding to
cross-reactivity with or binding to CTLA-4 (CTLA-4 [3]): did not show cross-reactivity with or binding to

recombinant human IL-15: recombinant human IL-15 of a first-in-human clinical trial
expansion of NK cells [4]: 10 fold
proliferation of γδT cells and CD8+ T cells [4]: significantly increased
